Results on one molecule are retold here after patent US20250346582A1, “SPLEEN TYROSINE KINASE INHIBITORS AND METHODS OF USE THEREOF” (THE BOARD OF TRUSTEES OF THE UNIVERSITY OF ILLINOIS, priority 2022, published 2025).

In test [1] the target is T1, Syk-cSH2 E164Q (Homo sapiens, UniProt P43405, E164Q).
T1 construct: polyhistidine (N); made in house; host or cells: Escherichia coli BL21 (DE3) pLysS
As to the kind of experiment: Fluorescence quenching vesicle binding assay, Syk-cSH2 E164Q mutant. Conditions: POPC/POPS/PIP3/dabsyl-PE vesicles. How it is done:
(§1) The membrane-binding assay is based on fluorescence quenching of EGFP fused to a SH2 domain by a dark quencher containing lipid, dabsyl-PE, incorporated in lipid vesicles. The plate reader assay was performed using the Synergy™ Neo spectrofluorometer at 25° C. Nontreated black polystyrene 96-well plates (Corning) were used. Protein (10-50 nM) with the increasing concentration of vesicles with a given lipid composition in 20 mM Tris buffer, pH 7.4, containing 0.16 M NaCl was added to each row of wells and the EGFP fluorescence emission at 516 nm was measured with excitation set at 485 nm. Z′ factor for the assay system was determined as described^74. Imax and IC50 values of inhibitors were determined using the equation, I=Imax/(1+IC50/[I]) where I and [I] indicate % inhibition and inhibitor concentration, respectively. The average and standard deviation values were obtained from triplicate determinations.

Test [2] deals with MV4-11 cells. As to the kind of experiment: Generation of drug-resistant MV4-11 cells under chronic treatment. In kind it is cell-based. To be noted: inhibitor increased from 0.5 to 5 μM over 10 weeks. How it is done: (§2) Then the concentration was maintained at 5 μM.
For test [3], the target named is T2, scaffolding function of Syk (Homo sapiens, UniProt P43405).
T2 construct: host or cells: MV4-11 AML cells (naive and entospletinib-resistant)
As to the kind of experiment: Co-immunoprecipitation with Syk, entospletinib-resistant MV4-11 cells. To be noted: 5 μM. It is filed as cell-based. How it is done:
(§3) MV-4-11 cells were collected by centrifugation, washed twice with phosphate phosphate-buffered saline (PBS) and resuspended in the immunoprecipitation (IP) buffer (50 mM HEPES, pH 7.4, 150 mM NaCl, 1 mM MgCl2, 1 mM EGTA, and 0.25 mM GTP) with 0.2-0.5% Triton X-100 and a protease inhibitor mix (Sigma-Aldrich). Lysates were prepared after 5 min of incubation on ice by repeated pipetting and centrifugation for 10 min at 12,000 g and at 4° C. For immunoprecipitation, the SYK-specific antibody was immobilized onto 100 μl Dynabeads/protein A (ThermoFisher) and the excess antibody was washed away by placing the tube in a DynaMag magnet and removing the supernatant. The resuspended beads were then incubated with the cell extract supernatant containing 500 μg of proteins for 1 h at 4° C. The immunoprecipitates were rinsed three times with the IP buffer and eluted with 30 μl of the sample buffer containing sodium dodecyl sulfate (SDS). For detection of proteins in total extracts (i.e., Input), 30 μg of the sample was loaded in each gel lane for western blot analysis.

The test system of test [4] is Syk activation. As to the kind of experiment: Immunoblotting of patient-derived primary AML cells. It is filed as cell-based. Conditions: primary AML cells from 4 patients refractory or relapsed. How it is done:
(§4) Primary samples were obtained from an existing HEMBANK at UIC under an IRB approved research protocol (protocol #2021-0723). Cells were processed and treated with inhibitors as reported previously^75. For primary AML samples, mononuclear cells isolated by Ficoll density centrifugation were utilized. mononuclear cells were treated in culture at a density of 0.5×10^6/ml in StemSpan with CD34 expansion supplement (Stemcell Technologies) for 24 h and then harvested for immunoblotting assays. In parallel 2×10^4 cells were plated in triplicate for each treatment condition in Methoccult H4434 (Stem Cell Technologies) in the presence of drug. At days 12-14, colonies were manually enumerated under light microscopy and normalized to DMSO control for each individual sample due to interpatient variability in colony forming activity. Normalized colony forming units for pooled treated and untreated samples (n=4) were compared using unpaired 2-tailed t test. p<0.05 was considered statistically significant.

Test [5] relates to HL60 cells. As to the kind of experiment: XTT cell proliferation assay, HL60 cells. It is filed as cell-based. How it is done:
(§5) MV4-11 or HL-60 cells were seeded into a clear-bottom 96-well plate containing varying concentrations of inhibitors in the optimal growth media described above and the mixtures were incubated for 16 h. Cells were then treated with a mixture of XTT-labeling reagents and the electron coupling reagents according to the manufacturer's protocol (Roche). After 4 h, the absorbance values at 475 nm and at 660 nm were simultaneously measured by Synergy™ Neo spectrofluorometer at 25° C. Cells with the growth media was used for background correction.
(Tetrazolium dyes change colour on reduction, which living cells bring about.)

For test [6], the target named is T2, scaffolding function of Syk. As to the kind of experiment: Co-immunoprecipitation with Syk, naïve MV4-11 cells. Conditions: 5 μM. In kind it is cell-based. How it is done:
as §3

For test [7], the system named is entospletinib-resistant MV4-11 cells. Kind of test: XTT cell proliferation assay, entospletinib-resistant MV4-11 cells. It is filed as cell-based. Conditions: Homo sapiens, read-out: IC50, inhibition of proliferation (XTT assay). How it is done: as §2, §5
Test [8] has as its target T3, Syk (Homo sapiens, UniProt P43405).
T3 construct: host or cells: MV4-11 AML cells (naive and entospletinib-resistant)
Kind of test: Streptavidin pull down assay with WC36B in MV4-11 cells. It is filed as cell-based. Conditions: WC36B-streptavidin pull down. How it is done:
Streptavidin-coated beads (Dynabeads™ M280 streptavidin beads; ThermoFisher) were washed twice with 1 ml of PBST (PBS+0.1% Tween 20) and resuspended in 100 μl of PBST. WC36B (or biotin) (10 mM) was added to 100 μl of the bead suspension and the mixture was incubated at room temperature for 15 min with gentle shaking. The mixture was then vortexed for 5 s and the tube was placed on a magnet for 1 min. After discarding the supernatant, the beads were resuspended in the same volume of the washing buffer. Washing is repeated three times to remove excess WC36B. WC36B-coated beads were then incubated with the cell lysate (MV-4-11) for 30 min at room temperature with gentle shaking. Protein-coated beads were separated with a magnet for 2-3 min and washed 4-5 times with PBS containing 0.1% BSA. The protein was then removed from the beads by boiling the beads in the SDS-polyacrylamide gel electrophoresis (PAGE) application buffer. Samples were concentrated for the mass spectrometry analysis and the western blot assay.

In test [9] the test system is patient AML cells. As to the kind of experiment: Colony growth assay of patient-derived AML cells. In kind it is cell-based. To be noted: primary AML cells from 4 patients. How it is done:
as §4

Test [10] concerns the target T4, Syk-cSH2 E164D (Homo sapiens, UniProt P43405, E164D).
T4 construct: polyhistidine (N); made in house; host or cells: Escherichia coli BL21 (DE3) pLysS
Kind of test: Fluorescence quenching vesicle binding assay, Syk-cSH2 E164D mutant. Conditions: up to 5 μM; POPC/POPS/PIP3/dabsyl-PE vesicles. How it is done: as §1

Turning to `[N-]=[N+]=C(C(=O)OC1CCCCC1)C(Nc1ncccn1)c1c[nH]c2ccccc12` (racemic) [WC36, Cyclohexyl 2-diazo-3-(1H-indol-3-yl)-3-(pyrimidin-2-ylamino)propanoate], the “inhibition of membrane binding of Syk-cSH2 E164Q” value in test [1] is “refractory to WC36 inhibition”. The “development of acquired resistance” value in [2] is “could not develop resistance to WC36”. The “suppression of co-precipitation with Syk” value in test [3] is on record as “greatly suppressed co-precipitation”. In addition, the “inhibition of Syk activation” value in test [4] is on record as “significant inhibition of Syk activation”. The “inhibition of proliferation (XTT assay)” value in test [5] is reported as “potently suppressed the proliferation of HL60 cells”. Besides, the “suppression of the scaffolding function of Syk (co-precipitation)” value in [6] was “greatly suppressed the scaffolding function of Syk”. Further, the IC50 in test [7] was found to be 500 ± 10 nM. For the same molecule, the “competition with WC36B for Syk binding” value in test [8] was “able to compete with WC36B for Syk binding”. The “suppression of colony forming activity” value in test [9] is reported as “statistically significant suppression of colony forming activity”. Moreover, the “inhibition of membrane binding of Syk-cSH2 E164D” value in test [10] is reported as “not inhibited”.
